Assay results taken from ChEMBL document CHEMBL5291721, “A preclinical secondary pharmacology resource illuminates target-adverse drug reaction associations of marketed drugs” (Nat Commun, 2023).

Assays:
[1] = biological target: T1, Equilibrative nucleoside transporter 1 (Homo sapiens, UniProt Q99808)
T1 sequence (Q99808 whole entry): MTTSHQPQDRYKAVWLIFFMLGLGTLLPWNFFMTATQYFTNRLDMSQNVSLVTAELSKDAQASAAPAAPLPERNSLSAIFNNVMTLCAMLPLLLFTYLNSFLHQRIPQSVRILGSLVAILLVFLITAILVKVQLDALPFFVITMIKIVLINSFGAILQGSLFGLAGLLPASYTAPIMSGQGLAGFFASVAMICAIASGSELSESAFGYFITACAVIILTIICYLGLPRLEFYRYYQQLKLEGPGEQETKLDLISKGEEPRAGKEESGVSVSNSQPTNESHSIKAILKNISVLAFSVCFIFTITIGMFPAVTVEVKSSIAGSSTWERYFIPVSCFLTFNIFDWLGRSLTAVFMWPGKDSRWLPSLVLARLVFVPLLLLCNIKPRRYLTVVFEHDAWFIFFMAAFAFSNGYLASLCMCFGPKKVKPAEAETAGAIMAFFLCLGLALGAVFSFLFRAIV

[2] = biological target: Glutamate receptor ionotropic, NMDA 1 (Rattus norvegicus, UniProt P35439)
[3] = biological target: T2, Alpha-1A adrenergic receptor (Homo sapiens, UniProt P35348); format: functional, cell-based
T2 sequence (P35348 whole entry): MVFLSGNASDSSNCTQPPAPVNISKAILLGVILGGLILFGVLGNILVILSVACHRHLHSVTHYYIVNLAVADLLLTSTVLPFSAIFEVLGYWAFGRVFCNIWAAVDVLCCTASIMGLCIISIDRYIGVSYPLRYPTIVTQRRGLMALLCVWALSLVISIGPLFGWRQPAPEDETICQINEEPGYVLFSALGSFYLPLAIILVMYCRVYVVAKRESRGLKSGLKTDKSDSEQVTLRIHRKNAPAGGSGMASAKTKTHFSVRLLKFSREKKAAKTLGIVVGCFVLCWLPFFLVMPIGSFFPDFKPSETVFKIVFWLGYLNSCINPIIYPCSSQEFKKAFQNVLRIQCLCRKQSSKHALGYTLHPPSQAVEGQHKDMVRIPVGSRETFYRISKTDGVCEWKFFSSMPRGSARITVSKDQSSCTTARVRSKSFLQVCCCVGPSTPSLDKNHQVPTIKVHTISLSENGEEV

[4] = biological target: T3, Muscarinic acetylcholine receptor M2 (Homo sapiens, UniProt P08172); format: functional, cell-based
T3 sequence (P08172 whole entry): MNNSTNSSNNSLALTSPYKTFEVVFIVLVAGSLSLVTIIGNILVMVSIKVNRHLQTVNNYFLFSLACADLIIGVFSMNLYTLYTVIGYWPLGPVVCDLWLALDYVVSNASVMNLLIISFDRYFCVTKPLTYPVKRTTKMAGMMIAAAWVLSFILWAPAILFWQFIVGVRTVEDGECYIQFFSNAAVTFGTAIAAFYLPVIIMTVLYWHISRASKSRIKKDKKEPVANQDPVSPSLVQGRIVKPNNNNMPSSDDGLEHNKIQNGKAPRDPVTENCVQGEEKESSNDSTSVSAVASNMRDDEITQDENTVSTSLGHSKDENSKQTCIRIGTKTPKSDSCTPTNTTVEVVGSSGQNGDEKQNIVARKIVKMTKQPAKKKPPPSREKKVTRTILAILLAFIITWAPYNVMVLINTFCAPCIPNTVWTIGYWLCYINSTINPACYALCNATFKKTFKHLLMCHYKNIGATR

Melanocortin receptor 3 = Melanocortin receptor 3 (Homo sapiens, UniProt P41968)
[5] = biological target: Beta-2 adrenergic receptor (Homo sapiens, UniProt P07550)
[6] = biological target: Sodium-dependent serotonin transporter (Homo sapiens, UniProt P31645)
[7] = biological target: Beta-1 adrenergic receptor (Homo sapiens, UniProt P08588); format: functional
D(3) dopamine receptor = D(3) dopamine receptor (Homo sapiens, UniProt P35462)
[8] = biological target: Muscarinic acetylcholine receptor M3 (Homo sapiens, UniProt P20309)
[9] = biological target: 5-hydroxytryptamine receptor 2A (Homo sapiens, UniProt P28223); format: functional, cell-based
[10] = biological target: Gamma-aminobutyric acid receptor subunit alpha-1 (Rattus norvegicus, UniProt P62813); format: functional
[11] = biological target: T4, Cholecystokinin receptor type A (Homo sapiens, UniProt P32238)
T4 sequence (P32238 whole entry): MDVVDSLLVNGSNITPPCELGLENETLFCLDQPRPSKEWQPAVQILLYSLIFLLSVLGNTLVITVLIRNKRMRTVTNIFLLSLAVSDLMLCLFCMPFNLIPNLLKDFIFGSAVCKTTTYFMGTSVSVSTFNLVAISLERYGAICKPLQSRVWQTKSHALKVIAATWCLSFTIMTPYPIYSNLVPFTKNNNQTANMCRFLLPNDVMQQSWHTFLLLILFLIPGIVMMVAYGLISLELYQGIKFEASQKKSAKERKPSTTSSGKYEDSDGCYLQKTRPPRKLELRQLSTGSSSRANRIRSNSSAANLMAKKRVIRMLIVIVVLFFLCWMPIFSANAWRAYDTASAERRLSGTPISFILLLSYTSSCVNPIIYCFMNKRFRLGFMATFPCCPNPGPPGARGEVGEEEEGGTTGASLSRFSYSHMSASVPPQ

[12] = biological target: Voltage-gated inwardly rectifying potassium channel KCNH2 (Homo sapiens, UniProt Q12809); format: functional; details: read-out: AC50
Further: assay procedure not described here.

Sequence of Muscarinic acetylcholine receptor M3 (P20309 whole entry): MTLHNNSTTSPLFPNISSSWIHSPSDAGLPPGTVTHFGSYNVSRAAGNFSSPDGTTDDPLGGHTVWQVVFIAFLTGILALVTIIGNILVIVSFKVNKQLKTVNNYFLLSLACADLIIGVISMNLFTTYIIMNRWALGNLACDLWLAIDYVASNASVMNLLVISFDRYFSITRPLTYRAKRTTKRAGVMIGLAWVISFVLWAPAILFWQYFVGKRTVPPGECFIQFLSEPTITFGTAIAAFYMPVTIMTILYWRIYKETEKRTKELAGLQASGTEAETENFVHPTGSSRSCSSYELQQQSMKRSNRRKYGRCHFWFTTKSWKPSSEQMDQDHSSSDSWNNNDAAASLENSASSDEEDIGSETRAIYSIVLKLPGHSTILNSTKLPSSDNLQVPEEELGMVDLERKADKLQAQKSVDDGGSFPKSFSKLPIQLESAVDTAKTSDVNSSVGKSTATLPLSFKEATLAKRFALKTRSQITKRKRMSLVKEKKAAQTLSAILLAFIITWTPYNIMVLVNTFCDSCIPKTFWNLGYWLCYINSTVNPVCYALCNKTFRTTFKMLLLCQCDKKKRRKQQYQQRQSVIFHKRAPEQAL
Sequence of Gamma-aminobutyric acid receptor subunit alpha-1 (P62813 whole entry): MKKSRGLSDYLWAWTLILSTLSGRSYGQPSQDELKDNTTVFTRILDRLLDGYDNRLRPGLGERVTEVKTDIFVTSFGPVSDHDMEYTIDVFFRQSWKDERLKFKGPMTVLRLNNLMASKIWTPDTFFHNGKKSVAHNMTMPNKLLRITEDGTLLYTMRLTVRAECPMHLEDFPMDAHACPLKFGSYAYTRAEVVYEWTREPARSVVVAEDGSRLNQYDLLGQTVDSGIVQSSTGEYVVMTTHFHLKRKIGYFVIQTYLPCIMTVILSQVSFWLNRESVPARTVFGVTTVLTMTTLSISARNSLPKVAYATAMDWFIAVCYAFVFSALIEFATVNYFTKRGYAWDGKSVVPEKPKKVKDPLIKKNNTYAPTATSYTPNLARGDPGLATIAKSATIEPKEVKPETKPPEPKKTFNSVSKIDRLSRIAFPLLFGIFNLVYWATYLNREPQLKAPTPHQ
Sequence of Beta-2 adrenergic receptor (P07550 whole entry): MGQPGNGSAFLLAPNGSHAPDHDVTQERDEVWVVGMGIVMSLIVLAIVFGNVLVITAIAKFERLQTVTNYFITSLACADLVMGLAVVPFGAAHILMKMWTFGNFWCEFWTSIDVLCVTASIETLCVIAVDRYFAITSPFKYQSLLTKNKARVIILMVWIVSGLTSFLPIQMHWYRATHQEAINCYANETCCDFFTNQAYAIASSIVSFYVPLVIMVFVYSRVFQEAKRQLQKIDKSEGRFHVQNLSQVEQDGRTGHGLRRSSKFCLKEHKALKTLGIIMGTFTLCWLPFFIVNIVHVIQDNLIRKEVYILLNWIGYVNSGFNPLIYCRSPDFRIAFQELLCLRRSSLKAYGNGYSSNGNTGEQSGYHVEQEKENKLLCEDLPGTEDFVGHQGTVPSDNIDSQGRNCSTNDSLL
Sequence of 5-hydroxytryptamine receptor 2A (P28223 whole entry): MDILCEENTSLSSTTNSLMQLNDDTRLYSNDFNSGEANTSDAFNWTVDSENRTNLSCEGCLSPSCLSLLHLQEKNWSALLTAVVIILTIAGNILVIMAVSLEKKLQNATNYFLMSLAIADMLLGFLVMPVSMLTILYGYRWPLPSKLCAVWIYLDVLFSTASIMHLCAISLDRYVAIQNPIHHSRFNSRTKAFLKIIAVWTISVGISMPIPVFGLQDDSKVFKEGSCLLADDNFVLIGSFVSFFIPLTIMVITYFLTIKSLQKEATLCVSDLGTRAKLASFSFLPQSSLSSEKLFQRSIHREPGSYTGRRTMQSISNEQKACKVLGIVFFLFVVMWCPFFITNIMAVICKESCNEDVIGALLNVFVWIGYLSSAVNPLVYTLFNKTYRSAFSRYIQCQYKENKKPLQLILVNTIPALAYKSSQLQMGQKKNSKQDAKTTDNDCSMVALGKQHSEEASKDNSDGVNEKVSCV
Sequence of Voltage-gated inwardly rectifying potassium channel KCNH2 (Q12809 whole entry): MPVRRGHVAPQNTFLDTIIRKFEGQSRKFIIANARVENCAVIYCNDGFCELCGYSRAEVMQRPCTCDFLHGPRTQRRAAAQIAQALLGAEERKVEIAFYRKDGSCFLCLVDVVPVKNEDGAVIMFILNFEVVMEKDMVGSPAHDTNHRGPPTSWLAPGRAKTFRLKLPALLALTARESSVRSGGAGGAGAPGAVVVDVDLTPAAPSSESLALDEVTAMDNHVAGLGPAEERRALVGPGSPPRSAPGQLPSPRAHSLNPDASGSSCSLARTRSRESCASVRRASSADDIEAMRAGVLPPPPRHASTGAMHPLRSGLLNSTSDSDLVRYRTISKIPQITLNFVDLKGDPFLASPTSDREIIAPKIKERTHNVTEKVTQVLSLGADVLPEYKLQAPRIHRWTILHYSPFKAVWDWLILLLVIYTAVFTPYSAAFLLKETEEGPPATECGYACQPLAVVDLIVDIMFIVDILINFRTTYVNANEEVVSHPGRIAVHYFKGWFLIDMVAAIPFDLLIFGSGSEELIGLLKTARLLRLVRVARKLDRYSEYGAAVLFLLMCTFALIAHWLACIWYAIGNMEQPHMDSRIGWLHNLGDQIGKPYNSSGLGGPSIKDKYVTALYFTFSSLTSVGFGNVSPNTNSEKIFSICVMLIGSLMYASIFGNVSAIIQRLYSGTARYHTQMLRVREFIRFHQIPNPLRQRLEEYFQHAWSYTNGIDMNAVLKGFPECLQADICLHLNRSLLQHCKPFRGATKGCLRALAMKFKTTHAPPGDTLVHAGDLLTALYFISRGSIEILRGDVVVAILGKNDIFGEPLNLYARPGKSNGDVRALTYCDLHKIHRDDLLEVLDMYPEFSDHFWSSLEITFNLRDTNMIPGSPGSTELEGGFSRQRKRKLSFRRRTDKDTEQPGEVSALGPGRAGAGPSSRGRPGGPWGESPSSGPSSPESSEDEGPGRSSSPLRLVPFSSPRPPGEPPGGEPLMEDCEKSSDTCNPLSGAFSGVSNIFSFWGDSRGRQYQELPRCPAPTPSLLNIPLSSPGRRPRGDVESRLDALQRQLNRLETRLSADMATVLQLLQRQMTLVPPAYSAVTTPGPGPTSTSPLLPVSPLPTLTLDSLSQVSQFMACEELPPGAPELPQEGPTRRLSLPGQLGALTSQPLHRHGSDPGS
Sequence of Melanocortin receptor 3 (P41968 whole entry): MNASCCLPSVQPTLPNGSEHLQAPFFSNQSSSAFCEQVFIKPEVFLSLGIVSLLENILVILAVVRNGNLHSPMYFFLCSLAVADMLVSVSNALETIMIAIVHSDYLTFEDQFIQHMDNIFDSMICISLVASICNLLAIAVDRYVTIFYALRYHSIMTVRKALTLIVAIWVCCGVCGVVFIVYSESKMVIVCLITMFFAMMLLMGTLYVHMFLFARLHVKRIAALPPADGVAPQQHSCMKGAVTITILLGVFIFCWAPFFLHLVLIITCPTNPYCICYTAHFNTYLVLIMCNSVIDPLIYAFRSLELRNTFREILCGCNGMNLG
Sequence of Beta-1 adrenergic receptor (P08588 whole entry): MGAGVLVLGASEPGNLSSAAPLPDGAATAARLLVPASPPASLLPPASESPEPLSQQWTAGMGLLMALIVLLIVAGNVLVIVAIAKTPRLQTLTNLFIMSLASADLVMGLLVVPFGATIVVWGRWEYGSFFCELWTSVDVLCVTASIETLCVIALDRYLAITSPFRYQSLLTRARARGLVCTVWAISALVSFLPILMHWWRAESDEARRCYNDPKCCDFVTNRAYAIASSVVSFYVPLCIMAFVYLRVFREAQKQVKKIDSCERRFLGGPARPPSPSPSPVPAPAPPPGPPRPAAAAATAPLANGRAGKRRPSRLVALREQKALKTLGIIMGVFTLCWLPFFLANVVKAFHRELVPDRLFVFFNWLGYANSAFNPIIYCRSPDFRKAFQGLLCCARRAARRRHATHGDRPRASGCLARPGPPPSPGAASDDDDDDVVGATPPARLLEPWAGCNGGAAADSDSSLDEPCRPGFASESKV
Sequence of Sodium-dependent serotonin transporter (P31645 whole entry): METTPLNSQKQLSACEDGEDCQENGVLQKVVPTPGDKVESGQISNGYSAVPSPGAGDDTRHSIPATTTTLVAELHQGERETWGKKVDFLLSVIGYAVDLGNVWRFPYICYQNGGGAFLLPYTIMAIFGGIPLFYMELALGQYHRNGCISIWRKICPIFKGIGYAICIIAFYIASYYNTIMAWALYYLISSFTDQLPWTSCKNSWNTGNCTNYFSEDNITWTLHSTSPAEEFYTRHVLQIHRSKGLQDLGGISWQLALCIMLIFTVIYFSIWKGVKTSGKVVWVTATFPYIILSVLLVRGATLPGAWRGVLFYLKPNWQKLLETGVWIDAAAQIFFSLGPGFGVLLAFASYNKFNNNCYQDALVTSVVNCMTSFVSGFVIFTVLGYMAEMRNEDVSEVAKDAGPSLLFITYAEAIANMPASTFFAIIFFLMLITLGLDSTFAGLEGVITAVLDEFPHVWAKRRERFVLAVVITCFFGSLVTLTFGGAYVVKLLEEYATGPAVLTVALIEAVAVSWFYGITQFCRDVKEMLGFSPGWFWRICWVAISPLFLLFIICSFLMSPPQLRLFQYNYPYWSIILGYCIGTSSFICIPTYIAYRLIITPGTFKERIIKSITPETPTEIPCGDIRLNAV
Sequence of D(3) dopamine receptor (P35462 whole entry): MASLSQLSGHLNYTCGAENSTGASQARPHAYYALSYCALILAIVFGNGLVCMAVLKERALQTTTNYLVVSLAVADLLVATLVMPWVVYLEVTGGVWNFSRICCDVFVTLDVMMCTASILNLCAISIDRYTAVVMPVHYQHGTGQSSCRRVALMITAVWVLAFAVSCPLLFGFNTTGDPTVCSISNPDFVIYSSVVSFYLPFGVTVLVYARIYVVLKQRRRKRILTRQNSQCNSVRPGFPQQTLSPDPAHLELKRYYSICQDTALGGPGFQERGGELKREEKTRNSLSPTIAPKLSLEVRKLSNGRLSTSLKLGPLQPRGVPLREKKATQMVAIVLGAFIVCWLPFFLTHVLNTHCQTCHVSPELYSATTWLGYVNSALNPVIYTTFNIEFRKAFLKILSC

Compound	AC50 [1] [µM]	AC50 [2] [µM]	AC50 [3] [µM]	AC50 [4] [µM]	AC50 (Melanocortin receptor 3) [µM]	AC50 [5] [µM]	AC50 [6] [µM]	AC50 [7] [µM]	AC50 (D(3) dopamine receptor) [µM]	AC50 [8] [µM]	AC50 [9] [µM]	AC50 [10] [µM]	AC50 [11] [µM]	AC50 [12] [µM]
CN1CC(=O)N2[C@H](c3ccc4c(c3)OCO4)c3[nH]c4ccccc4c3C[C@@H]2C1=O	> 30	> 10	> 30	> 10	> 30	> 10	34.8	> 10	> 30	> 30	> 30	> 10	> 30	> 30
C=C1CC[C@@]2(O)[C@H]3Cc4ccc(O)c5c4[C@@]2(CCN3CC2CC2)[C@H]1O5	> 30	> 30	> 30	> 30	> 30	–	> 30	> 30	> 30	> 30	> 30	> 30	> 30	28
CN1CCc2cccc3c2[C@H]1Cc1ccc(O)c(O)c1-3 [APOMORPHINE]	> 30	> 10	0.32	> 10	> 30	> 10	21.9	> 10	–	> 30	1.79	> 10	> 30	–
NC(CO)C(=O)NNCc1ccc(O)c(O)c1O (configuration not stated) [BENSERAZIDE]	> 30	> 10	> 30	> 10	> 30	> 10	> 30	> 10	> 30	> 30	> 30	> 10	> 30	> 30
CN(C)C(=O)OC1N=C(c2ccccc2)c2cc(Cl)ccc2N(C)C1=O (configuration not stated) [CAMAZEPAM]	> 30	> 10	> 30	> 10	> 30	> 10	> 10	> 10	> 10	> 10	> 30	0.96	> 30	> 30
CC(C)C(=O)OCC(=O)[C@@]12O[C@H](C3CCCCC3)O[C@@H]1C[C@H]1[C@@H]3CCC4=CC(=O)C=C[C@]4(C)[C@H]3[C@@H](O)C[C@@]12C [CICLESONIDE]	> 10	> 10	> 30	> 10	> 10	> 10	> 10	> 10	> 30	> 30	> 10	> 10	> 10	> 30
CCCCOc1cc(C(=O)NCCN(CC)CC)c2ccccc2n1 [DIBUCAINE]	> 10	> 10	> 30	> 10	> 30	> 10	> 10	> 10	> 30	> 30	> 10	> 30	> 30	1.42
CCC1(C2=CCCCCC2)C(=O)NC(=O)NC1=O [HEPTABARBITAL]	> 10	> 10	> 30	> 10	> 10	> 10	> 10	> 10	> 30	> 30	> 10	> 10	> 10	> 30
CC(=O)NS(=O)(=O)c1ccc(N)cc1 [SULFACETAMIDE]	> 10	> 10	–	> 10	> 10	> 10	> 10	> 10	> 30	> 30	> 10	> 10	> 10	> 30
